The numbers were not newly measured in US7541158B2, “Taste receptors of the T1R family from domestic dog” (Monell Chemical Senses Center, priority 2004, dated 2009), which cites them from elsewhere.

Data set [1] has as its system dog. The conditions noted are these: neurophysiological studies; mono- and disaccharides and sweeteners.
The subject of data set [2] is domestic dog.
In data set [3] the test system is dog taste nerve fibers. The conditions noted are these: for response of dog taste nerve fibers that respond to sucrose: sucrose-responsive fibers.

Molecules are shown by their SMILES.

`O=C(CO)[C@@H](O)[C@H](O)[C@H](O)CO` [D-fructose]: the “taste response activity in the dog” value in data set [1] is “Particularly active”.
Consider `O=C1NS(=O)(=O)c2ccccc21` [saccharin], for which the “taste quality perceived by dog” value in data set [2] is given as “bitter”. In data set [3] (saccharin-responsive fibers), the “response of dog taste nerve fibers fired by saccharin” value is listed as “fired”. Also, the “response of dog taste nerve fibers that respond to sucrose” value in data set [3] is given as “no response”.
In the case of `OC[C@H]1O[C@@](CO)(O[C@H]2O[C@H](CO)[C@@H](O)[C@H](O)[C@H]2O)[C@@H](O)[C@@H]1O` [sucrose], the “taste response activity in the dog” value in data set [1] is on record as “Particularly active”. The behavioral preference result in data set [2] (behavior said to be congenital) was “shows a preference”. Besides, the “response of dog taste nerve fibers that respond to sucrose” value in data set [3] is reported as “responded”.
Consider `OC[C@H]1O[C@](O)(CO)[C@@H](O)[C@@H]1O` [β-D-fructose], for which, in data set [1], the “taste response activity in the dog” value was “Particularly active”.
